In patent publication US10154813B1, “Method and apparatus for patient skin color monitoring and drug efficacy measurement” (priority 2017, dated 2018):

System: microvascular endothelium (skin, right arm, anterior position) of Congestive Heart Failure patients
Test: Skin colorimetry (a, b, L) before and after application of “μ” in Congestive Heart Failure patients on Valsartan, monthly for 9 months
Assay type: in vivo, human
Set-up: key to a. Wet after “μ”: a = red/green colour coordinate (colorimeter); key to b (Wet): b = yellow/blue colour coordinate (colorimeter)
Conditions: for L / a / b: baseline before μ; for L (Wet) / a. Wet after “μ” / b (Wet): wet after μ
From the text: As stated above, one available quantitative color system is the L*a*b* color space or Hunter L/a/b color space, which can be visualized as a rectangular 3D coordinate system. L indicates lightness, a is the red/green coordinate, and b is the yellow/blue coordinate. L can have a value from 0 (black) to 100 (perfect reflection). The a and b axes have no numerical limits. Coordinate a is positive when red, and negative when green. Positive b is yellow, and negative b is blue. Colors can be described numerically using numerical values for L, a, and b. Differences between two colors can be quantified for each of the individual L/a/b values (ΔL, Δa, Δb). Overall differences between two colors can be derived numerically based on the three Δ values.
μ=drug applied before colorimeter and/or spectrophotometer measurements.
L1, a1, b1=Initial measurement.
L2, a2, b2=Measurement with μ applied. L2−L1=ΔLμ(L2 minus L1)=change in lightness and darkness(+=lighter,−=darker) a2−a1=Δaμ(a2 minus a1)=change in red and green(+=redder,−=greener) b2−b1=Δbμ(b2 minus b1)=change in yellow and blue(+=yellower,−=bluer)
With reference to the tables below and to FIG. 18, the three different patients (Patient A, Patient B, and Patient C) had new diagnosis of Congestive Heart Failure (CHF). Patient A, B, C have diastolic and systolic heart failure with an ejection fraction of 35% with normal coronary artery disease by angiography. All three patients were started on an angiotensin receptor blocker Valsartan and followed continuously every month for 9 months. The a, b, L were calculated before and after the “μ” has been applied shown in color red. The blue indicates the baseline. At the initiation of the CHF medication Valsartan, the patient has a normal response of the microvascular endothelium after the application of “μ” in the calculations of a, b, L. All colorimetric and spectrophotometric calculations are performed at the same location on the right arm, in the anterior position in all three patients continuously for 9 months. The titration of Valsartan was maximized in all three patients. […] This occurs because it is the desired effect of the CHF medication in the above patients over the period of 9 months. The current standard of care is to improve the heart function in CHF. The cardiologist lowers the ionotropic and chronotropic effect of the heart in CHF patients. The above methodology allows for the appropriate and desired effect in being able to titrate the medication and know how much medicine to administer to the patient by either decreasing or increasing the Valsartan dose. This is performed to achieve the necessary effect of pharmacotherapy with limiting the exacerbation of heart failure symptoms in such patients. It allows for healthcare providers to also know if the effects of the medications are adequate and they are in fact working appropriately on the microscopic endothelium level of the patient. As the months progressed in the patients above, the red line calculations indicate a decreased microvascular endothelial flow. This is evaluated by measuring a decrease in the a shift.
This correlates with a decrease in the ionotropic and chronotropic effect of the heart in these patients. This is the desired effect and outcome that the cardiologist is trying to achieve. The calculation of a, b, L, after “μ” is applied is objectively calculated in these CHF patients, allowing for the proper titration of maximum medication administration while limiting the side effects of the medications concurrently.

CCCCC(=O)N(Cc1ccc(-c2ccccc2-c2nnn[nH]2)cc1)[C@H](C(=O)O)C(C)C [Valsartan]
L (Patient A, April 2017): 70.87
a (Patient A, April 2017): 5.05
b (Patient A, April 2017): 16.72
L (Patient A, December 2016): 70.63
a (Patient A, December 2016): 5.20
b (Patient A, December 2016): 16.61
L (Patient A, February 2017): 70.24
a (Patient A, February 2017): 5.12
b (Patient A, February 2017): 15.42
L (Patient A, January 2017): 71.68
a (Patient A, January 2017): 4.70
b (Patient A, January 2017): 14.67
L (Patient A, July 2017): 71.63
a (Patient A, July 2017): 5.48
b (Patient A, July 2017): 14.62
L (Patient A, June 2017): 69.91
a (Patient A, June 2017): 5.02
b (Patient A, June 2017): 15.64
L (Patient A, March 2017): 70.42
a (Patient A, March 2017): 5.14
b (Patient A, March 2017): 16.14
L (Patient A, May 2017): 71.99
a (Patient A, May 2017): 4.98
b (Patient A, May 2017): 15.47
L (Patient A, November 2016): 70.10
a (Patient A, November 2016): 5.59
b (Patient A, November 2016): 15.39
L (Wet) (Patient A, April 2017): 70.72
a. Wet after “μ” (Patient A, April 2017): 4.54
b (Wet) (Patient A, April 2017): 16.78
L (Wet) (Patient A, December 2016): 69.98
a. Wet after “μ” (Patient A, December 2016): 6.35
b (Wet) (Patient A, December 2016): 16.81
L (Wet) (Patient A, February 2017): 70.12
a. Wet after “μ” (Patient A, February 2017): 6.08
b (Wet) (Patient A, February 2017): 16.44
L (Wet) (Patient A, January 2017): 71.76
a. Wet after “μ” (Patient A, January 2017): 6.48
b (Wet) (Patient A, January 2017): 16.48
L (Wet) (Patient A, July 2017): 70.04
a. Wet after “μ” (Patient A, July 2017): 4.46
b (Wet) (Patient A, July 2017): 16.31
L (Wet) (Patient A, June 2017): 70.54
a. Wet after “μ” (Patient A, June 2017): 4.43
b (Wet) (Patient A, June 2017): 15.89
L (Wet) (Patient A, March 2017): 69.42
a. Wet after “μ” (Patient A, March 2017): 4.64
b (Wet) (Patient A, March 2017): 16.85
L (Wet) (Patient A, May 2017): 69.79
a. Wet after “μ” (Patient A, May 2017): 4.20
b (Wet) (Patient A, May 2017): 15.62
L (Wet) (Patient A, November 2016): 68.40
a. Wet after “μ” (Patient A, November 2016): 7.06
b (Wet) (Patient A, November 2016): 16.16
L (Patient B, April 2017): 73.95
a (Patient B, April 2017): 3.25
b (Patient B, April 2017): 15.34
L (Patient B, December 2016): 72.77
a (Patient B, December 2016): 3.36
b (Patient B, December 2016): 4.88
L (Patient B, February 2017): 74.52
a (Patient B, February 2017): 3.06
b (Patient B, February 2017): 13.98
L (Patient B, January 2017): 74.06
a (Patient B, January 2017): 2.66
b (Patient B, January 2017): 15.09
L (Patient B, July 2017): 74.23
a (Patient B, July 2017): 4.20
b (Patient B, July 2017): 14.14
L (Patient B, June 2017): 74.05
a (Patient B, June 2017): 3.85
b (Patient B, June 2017): 14.35
L (Patient B, March 2017): 74.43
a (Patient B, March 2017): 3.09
b (Patient B, March 2017): 14.08
L (Patient B, May 2017): 73.52
a (Patient B, May 2017): 3.40
b (Patient B, May 2017): 15.02
L (Patient B, November 2016): 73.44
a (Patient B, November 2016): 4.15
b (Patient B, November 2016): 13.69
